Measured values reported in patent US6740679B1, “Nutritional supplement or pharmaceutical preparation comprising triglycerides with seven-carbon fatty acid” (Baylor University Medical Center, priority 1999, dated 2004).
Entries after “also recorded” stand apart in the source; their conditions may differ. Values belong to the compound of their own block, whether it stands above or below them.

Tests used:
[1] = test system: medium-chain acyl-CoA dehydrogenase (MCAD) deficient fibroblasts; assay: Tandem mass spectrometry assay of labeled fatty acid oxidation; format: cell-based, human; settings: for accumulation of labeled acylcarnitine: C8 m/z305.3 from D3-C16, m/z305 for D3-C8, m/z291 heptanoylcarnitine for D3-C7
Description: (§1) Fibroblasts taken from the deceased sibling and amniocytes taken from the fetus were both evaluated for fatty acid metabolism of n-heptanoic acid (C7) using a tandem mass spectrometry assay previously reported. (Yang, et al. 1998. “Identification of four novel mutations in patients with carnitine palmitoyltransferase II (CPT II) deficiency,” Mol Genet Metab 64:229-236). […] Each cell line was incubated separately with 7-^2H3-heptanoate (D3-C7), 8-^2H3-octanoate (D3-C8), 9-^2H3-nonanoate (D3-C9), and 16-^2H3-palmitate (D3-C16).
(§2) The normal cell line and eleven abnormal cell lines were analyzed in groups of three. For quantitative purposes, labeled internal standards were included in each analysis and are designated as “IS” on the first profile in each group. The mass numbers for these standards are: m/z420 (^2H6-palmitate-C16), m/z308 (^2H6-octanoate-C8), m/z269 (^2H9-isovaleric-C5) , and m/z237 (^2H5-propionate-C3), wherein m/z is the mass:charge ratio.
(§3) This relative ammount of m/z235 (^2H3-propionate-C3) is compared to the level of the internal standards at m/z269 (^2H9-isovaleric-C5) and m/z237 (^2H5-propionate-C3).

[2] = test system: VLCAD-C (cardiac form of very-long-chain acyl-CoA dehydrogenase) deficient fibroblasts; assay: as above; format: cell-based, human
Description: as §1, §2, §3

[3] = test system: VLCAD-H (hypoglycemic form of very-long-chain acyl-CoA dehydrogenase) deficient fibroblasts; assay: as above; format: cell-based, human
Description: as §1, §2, §3

[4] = test system: short-chain acyl-CoA dehydrogenase (SCAD) deficient fibroblasts; assay: as above; format: cell-based, human
Description: as §1, §2, §3

[5] = test system: long-chain L-3-hydroxy-acyl-CoA dehydrogenase (LCHAD) deficient fibroblasts; assay: as above; format: cell-based, human
Description: as §1, §2, §3

[6] = test system: electron transfer flavoprotein QO dehydrogenase-mild (ETF-DH mild) deficient fibroblasts; assay: as above; format: cell-based, human
Description: as §1, §2, §3

[7] = test system: mitochondrial trifunctional protein (TRIFUNCTIONAL) deficient fibroblasts; assay: as above; format: cell-based, human
Description: as §1, §2, §3

[8] = test system: electron transfer flavoprotein QO dehydrogenase-severe (ETF-DH severe) deficient fibroblasts; assay: as above; format: cell-based, human
Description: as §1, §2, §3

[9] = test system: carnitine palmitoyltransferase II (CPT II) deficient fibroblasts; assay: as above; format: cell-based, human; settings: for accumulation of labeled acylcarnitine of the precursor: m/z417 for D3-C16, m/z319 for D3-C9
Description: as §1, §2, §3

[10] = test system: carnitine palmitoyltransferase I (CPT I) deficient fibroblasts; assay: as above; format: cell-based, human
Description: as §1, §2, §3

[11] = test system: fibroblasts with severe carnitine/acylcarnitine translocase deficiency (TRANSLOCASE); assay: Tandem mass spectrometry assay of labeled fatty acid oxidation in cultured cells; format: cell-based, human; settings: translocase-deficient fibroblasts; for accumulation of labeled acylcarnitine of the precursor: m/z417 for D3-C16, m/z305 for D3-C8, m/z319 for D3-C9
Description: as §1, §2, §3

normal fibroblasts = assay: Tandem mass spectrometry assay of labeled fatty acid oxidation; format: cell-based, human
Text: Fibroblasts taken from the deceased sibling and amniocytes taken from the fetus were both evaluated for fatty acid metabolism of n-heptanoic acid (C7) using a tandem mass spectrometry assay previously reported. (Yang, et al. 1998. “Identification of four novel mutations in patients with carnitine palmitoyltransferase II (CPT II) deficiency,” Mol Genet Metab 64:229-236). The mass spectrometry results are presented for palmitate in FIG. 3A and triheptanoin in FIG. 3B for the fibroblasts taken from the deceased sibling, and for palmitate in FIG. 4A and triheptanoin in FIG. 4B for the amniocytes taken from the fetus. […]
The normal cell line and eleven abnormal cell lines were analyzed in groups of three. For quantitative purposes, labeled internal standards were included in each analysis and are designated as “IS” on the first profile in each group. […]

[12] = test system: amniocytes from a fetus with severe translocase deficiency; assay: Tandem mass spectrometry assay of fatty acid oxidation in amniocytes; format: cell-based, human; settings: translocase-deficient amniocytes
Text: Because a sibling had died at the age of four days from severe translocase deficiency, amniocytes obtained from a fetus were examined for competency in fatty acid metabolism. […] Fibroblasts taken from the deceased sibling and amniocytes taken from the fetus were both evaluated for fatty acid metabolism of n-heptanoic acid (C7) using a tandem mass spectrometry assay previously reported. (Yang, et al. 1998. “Identification of four novel mutations in patients with carnitine palmitoyltransferase II (CPT II) deficiency,” Mol Genet Metab 64:229-236). […]

fasting rats = settings: rats fed the triglyceride; Anderson et al. 1975; cited from earlier work

Structure (SMILES): [2H]C([2H])([2H])CCCCCCC(=O)O [D3-C8, 8-^2H3-octanoate]
- accumulation of labeled acylcarnitine [1]: relative accumulation of m/z 305
- accumulation of labeled acylcarnitine of the precursor [11]: relative accumulation of m/z 305

Structure (SMILES): CCCCCCC(=O)O [n-heptanoic acid]
- oxidation of the fatty acid [12]: readily oxidized to propionyl-CoA
- oxidation of the fatty acid (labeled acylcarnitine profile) [11]: successful oxidation; also recorded: readily oxidized to propionyl-CoA

Structure (SMILES): CCCCCCCCCCC(=O)OCC(COC(=O)CCCCCCCCCC)OC(=O)CCCCCCCCCC [triundecanoin]
- blood glucose levels during prolonged fasting (fasting rats): maintain nonfasting blood glucose levels during prolonged fasting

The next lines start with results.

- accumulation of labeled acylcarnitine [1]: markedly increased
Structure (SMILES): [2H]C([2H])([2H])CCCCCC(=O)O [D3-C7, 7-^2H3-heptanoate]
- relative amount of 2H3-propionate-C3 (m/z235) produced ([2]; compared to normal cells): either comparable to or in excess of the amount seen in normal cells
- relative amount of 2H3-propionate-C3 (m/z235) produced ([3]; compared to normal cells): either comparable to or in excess of the amount seen in normal cells
- relative amount of 2H3-propionate-C3 (m/z235) produced ([4]; compared to normal cells): either comparable to or in excess of the amount seen in normal cells
- relative amount of 2H3-propionate-C3 (m/z235) produced ([5]; compared to normal cells): either comparable to or in excess of the amount seen in normal cells
- oxidation of the fatty acid (labeled acylcarnitine profile) [6]: no oxidation of labeled 7-^2H3-heptanoate was observed
- relative amount of 2H3-propionate-C3 (m/z235) produced ([7]; compared to normal cells): either comparable to or in excess of the amount seen in normal cells
- oxidation of the fatty acid (labeled acylcarnitine profile) [8]: no oxidation of labeled 7-^2H3-heptanoate was observed
- relative amount of 2H3-propionate-C3 (m/z235) produced ([9]; compared to normal cells): either comparable to or in excess of the amount seen in normal cells
- relative amount of 2H3-propionate-C3 (m/z235) produced ([10]; compared to normal cells): either comparable to or in excess of the amount seen in normal cells
- relative amount of 2H3-propionate-C3 (m/z235) produced ([11]; compared to normal cells): either comparable to or in excess of the amount seen in normal cells

- accumulation of labeled acylcarnitine of the precursor ([5]; m/z319 for D3-C9): an increase was observed at m/z319
- accumulation of labeled acylcarnitine of the precursor [9]: an increase was observed at m/z319
Structure (SMILES): [2H]C([2H])([2H])CCCCCCCC(=O)O [D3-C9, 9-^2H3-nonanoate]
- accumulation of labeled acylcarnitine of the precursor [11]: an increase was observed at m/z319

- accumulation of labeled acylcarnitine [1]: marked accumulation
- oxidation of the fatty acid (labeled acylcarnitine profile) [4]: oxidation stops at m/z249
- oxidation of the fatty acid (labeled acylcarnitine profile) [9]: no oxidation occurs
- amount of labeled palmitoylcarnitine (m/z417) [10]: minimal amount
- oxidation of the fatty acid (labeled acylcarnitine profile) [10]: virtually no oxidation occurs
Structure (SMILES): [2H]C([2H])([2H])CCCCCCCCCCCCCCC(=O)O [D3-C16, 16-^2H3-palmitate]
- profile of labeled acylcarnitine intermediates (normal fibroblasts): from C16 down to and including C4
- oxidation of the fatty acid (labeled acylcarnitine profile) [1]: oxidation clearly proceed down to the level of C8
- profile of labeled acylcarnitines [2]: abnormal profiles of labeled acylcarnitines
- profile of labeled acylcarnitines [3]: abnormal profiles of labeled acylcarnitines
- profile of labeled acylcarnitines [5]: abnormal profiles of labeled acylcarnitines
- oxidation of the fatty acid (labeled acylcarnitine profile) [6]: abnormal profiles of labeled acylcarnitines
- profile of labeled acylcarnitines [7]: abnormal profiles of labeled acylcarnitines
- oxidation of the fatty acid (labeled acylcarnitine profile) [8]: abnormal profiles of labeled acylcarnitines
- accumulation of labeled acylcarnitine of the precursor [9]: large quantities of labeled palmitoylcarnitine
- oxidation of the fatty acid (labeled acylcarnitine profile) [11]: no oxidation occurs
- accumulation of labeled acylcarnitine of the precursor [11]: large quantities of labeled palmitoylcarnitine
